Results as given in patent US20220241413A1, “COMBINATION THERAPIES USING CD-38 ANTIBODIES” (Takeda Pharmaceutical Company Limited, priority 2019, published 2022).

Key:
[1] = system: relapsed and refractory multiple myeloma (RRMM); assay: AB79-1501 study, AB79 monotherapy SC in RRMM: disease response; assay type: in vivo, human; details: at the RP2D, anti-CD38 naïve patients who received at least cycle 1
From the text: The AB79-1501 study is a Phase 1b/2a multicenter, open-label, dose-escalation, single-arm study in patients with relapsed and refractory multiple myeloma (RRMM), who were previously treated with at least a proteasome inhibitor (PI), an immunomodulatory drug (IMiD), an alkylating agent, and a steroid. Patients eligible for study enrollment are refractory or intolerant to at least one PI and at least one IMiD, and have received either ≥3 prior therapies or ≥2 prior therapies, if one of those therapies included a combination of a PI and an IMiD. In the phase 1b dose-escalation part of the study, patients who were previously exposed to an anti-CD38 agent are eligible; however, this criterion is not required. In the phase 2a expansion part of the study, patients were also refractory to at least one anti-CD38 monoclonal therapy at any time during prior treatment. The study was designed to evaluate the safety and tolerability of subcutaneously administered AB79 monotherapy in patients with RRMM, to determine the recommended phase 2 dose (RP2D), and to provide a preliminary assessment of its single-agent activity against RRMM, including in patients who are refractory to daratumumab. Parameters such as safety, tolerability, pharmacokinetics (PK), pharmacodynamics, and disease response were assessed.
As of the data cutoff, nineteen (19) patients were treated in the dose-escalation portion of the ongoing study in patients with RRMM and have completed at least 1 cycle: 4 patients in the first cohort (45 mg); 3 patients in the second cohort (135 mg); 6 patients in the third cohort (300 mg); and 6 patients in the fourth cohort (600 mg). The most common TEAEs (in ≥10% of patients) regardless of causality in the total population as of this date are fatigue and upper respiratory infection (27% each), insomnia (22%), diarrhea and nausea (17% each), headache and anemia (15% each), neutropenia, abdominal distension, back pain, and hypertension (12% each), cough and pneumonia (10% each). […] The RP2D was determined to be 600 mg with AB79 monotherapy. […]

[2] = biological target: cynomolgus CD38 (Macaca fascicularis, UniProt Q5VAN0); assay: Binding to cynomolgus CD38
cynomolgus CD38, sequence (Q5VAN0 whole entry): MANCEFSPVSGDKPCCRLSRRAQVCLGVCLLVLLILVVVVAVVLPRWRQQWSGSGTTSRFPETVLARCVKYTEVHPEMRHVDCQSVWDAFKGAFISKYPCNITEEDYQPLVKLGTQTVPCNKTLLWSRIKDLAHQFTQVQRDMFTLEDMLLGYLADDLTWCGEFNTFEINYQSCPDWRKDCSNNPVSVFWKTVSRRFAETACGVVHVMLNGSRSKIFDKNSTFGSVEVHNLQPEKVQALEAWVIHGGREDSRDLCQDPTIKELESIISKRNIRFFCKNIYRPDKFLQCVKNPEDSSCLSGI
From the text: (§1) Other Morphosys antibodies targeting CD38 are known (see, e.g., WO 2006/125640, which discloses four human antibodies: MOR03077, MOR03079, MOR03080, and MOR03100 and two murine antibodies: OKT10 and IB4). […] Moreover, the prior art antibodies have poor ADCC as well as CDC activity.

[3] = biological target: human CD38 (Homo sapiens, UniProt P28907); assay: Biacore affinity to human CD38; assay type: binding
From the text: as §1

[4] = system: newly diagnosed multiple myeloma (NDMM); assay: AB79-1002 phase 1b study, AB79 with LenDex or VRd in NDMM: disease response; assay type: in vivo, human; details: total population including both backbone regimens, one patient pending
From the text: This is a Phase 1b, open-label, multicenter study to evaluate the safety, efficacy, tolerability, and pharmacokinetics (PK) of AB79 when added to 1 of 2 standard backbone regimens (lenalidomide plus dexamethasone [LenDex] or bortezomib [Velcade] plus lenalidomide and dexamethasone [VRd]) in adult patients with newly diagnosed multiple myeloma (NDMM) for whom stem cell transplantation (SCT) is not planned as initial therapy. The dose and schedule for the backbone regimens (LenDex and VRd) are given in accordance with product labeling or standard medical practice. Treatment cycles are 28 days until disease progression (PD) or unacceptable toxicity occurs. Treatment may be discontinued for other reasons listed below. AB79 is supplied by the sponsor. Bortezomib, dexamethasone, and lenalidomide are standard-of-care agents that are supplied from commercial sources. […]
Efficacy assessment of tumor response and disease progression are conducted in accordance with IMWG criteria. […] Bone marrow examinations, skeletal surveys, computed tomography (CT) or magnetic resonance imaging ([…]) to evaluate lytic and/or extramedullary plasmacytomas, and serum calcium corrected for albumin are evaluated as necessary based on patient's baseline disease status. […]

In the case of “AB79: anti-CD38 monoclonal IgG1 antibody; heavy chain SEQ ID NO:11, light chain SEQ ID NO:12”, the “clinical benefit rate (minor response or better)” value [1] is reported as 73%, the “disease control rate (stable disease or better)” value [1] is reported as 91% and the “preliminary objective response rate (ORR)” value [1] is reported as 36%. For the same substance, the “binding to cynomolgus CD38” value [2] was “binds”, the Kd [3] was 5.4 nM and the “preliminary objective response rate (ORR)” value [4] was 100%.
